According to paper PMC9916762, “Impact of Hydrophobic Chains in Five-Coordinate Glucoconjugate Pt(II) Anticancer Agents” (International Journal of Molecular Sciences, 2023):

Key:
[1] = Octanol/water partition coefficient, shake-flask method; type: physicochemical; settings: n-octanol/water, UV-vis
Protocol: The partition coefficients in octanol/water (log Po/w) were measured using the shake-flask method, by calculating the equilibrium concentrations through UV spectra (Table 1).
Partition coefficients for the platinum complexes were determined in triplicate in an n-octanol/water system, with different ratios (1:1, 1:2, 2:1). Each complex was dissolved in n-octanol at the concentrations 16.7, 12.5, or 10 μM and subsequently, an appropriate volume of water was added. The mixtures were shaken mechanically for 1 h to ensure the distribution between the two solvent phases. The samples were then centrifuged (13,000 rpm, 10 min). Afterwards, the platinum concentration was determined in the octanol phases by UV–vis spectrophotometry, after collecting a calibration line for each complex. Results are expressed as the logarithm of the partition coefficient of octanol/water (log Po/w), which is the logarithm of the concentration of platinum in the n-octanol divided by its concentration in the aqueous layer.

[2] = system: immortalized human keratinocytes (HaCaT); test: MTT cell viability assay, HaCaT; type: cell-based; settings: 48 h incubation
Description: (§1) The immortalized human keratinocytes (HaCaT) were from Innoprot.

[3] = system: immortalized murine fibroblasts (BALB/c-3T3); settings: read-out: IC50 BALB-c/3T3; 48 h incubation, MTT
Protocol: To evaluate their biological activity, the effects of the four complexes on cell viability were evaluated in eukaryotic cell models. For this purpose, experiments were performed on two cancer cell lines, i.e., human epidermoid carcinoma cells (A431) and murine fibroblast BALB/c-3T3 transformed with the SV40 virus (SVT2), and on two non-cancer cell lines, i.e., immortalized human keratinocytes (HaCaT) and immortalized murine fibroblasts (BALB/c-3T3). Cells were incubated with increasing concentrations of 1,Me-Me, 1,Oct-Me, 1,Me-Oct, and 1,Oct-Oct (from 0.1 to 50 μM). After 48 h of incubation, cytotoxicity was determined by MTT assay and cell survival was expressed as the percentage of viable cells in the presence of each complex compared with that of the untreated cells (Figure S19).
The immortalized human keratinocytes (HaCaT) were from Innoprot. Human The A431 epidermoid carcinoma, murine BALB/c-3T3, and SVT2 fibroblasts were from ATCC. Cells were cultured in Dulbecco’s modified Eagle’s medium (DMEM) (Sigma-Aldrich, St. Louis, MO, USA), supplemented with 10% foetal bovine serum (HyClone), 2 mM L-glutamine, and antibiotics, all from Sigma-Aldrich, under a 5% CO2-humidified atmosphere at 37 °C. To test the effects of the complexes on cell viability, cells were seeded at a density of 2.5 × 10^3 cells per well in 96-well plates. After 24 h, cells were incubated with increasing concentrations (from 0.1 to 50 μM) of the four complexes. After 48 h, cell viability was assessed by the MTT assay, as previously reported in [43]. Cell viability was expressed as the percentage of viable cells in the presence of the Pt complexes compared to the controls, represented by untreated cells and cells supplemented with identical volumes of DMSO. Each sample was tested in three independent analyses, each carried out in triplicate.

[4] = system: murine fibroblast BALB/c-3T3 transformed with the SV40 virus (SVT2); test: MTT cell viability assay, SVT2; type: cell-based
Description: as §1

SVT2 cells = test: Cellular Pt uptake by ICP-MS, SVT2; type: cell-based, murine; settings: SVT2, 9.8 μM (IC50), 48 h, mean ± S.E.
Protocol: In particular, SVT2 and A431 were incubated for 48 h with 1-Me,Me and 1-Oct,Me, using the IC50 value concentrations. At the end of incubation, uptake and cell death mechanisms were evaluated. […] Finally, apoptosis was investigated by Western blot analyses using specific antibodies against pro-caspases 9 and 3.
To study the uptake of the complexes, SVT2 and A431 were incubated for 48 h in the presence of 1-Me,Me and 1-Oct,Me, respectively, at their IC50 concentrations. At the end of incubation, Pt determination was performed by inductively coupled plasma mass spectrometry (ICP-MS, Aurora M90; Bruker, Ettlingen/Leipzig, Germany) in the “Normal Sensitivity” mode. Calibration curves for the quantification of Pt ranged from 0.1 to 100 μg/L and were constructed daily by the analysis of the standard solutions prepared immediately before analysis. All standards used for analysis were prepared in HNO3 solution (2%, v/v). The internal standards were ^89Y and ^115In in both the calibration curve and sample analyses. The linearity was acceptable with an R^2 value greater than 0.9996. The treatment of the cells involved a wet digestion: after centrifugation, cell samples were wet digested with 1 mL of ultrapure HNO3 (67–69%, v/v). The mixture was gently boiled over a water bath (90 °C) for 3 h until a clear solution was obtained. […]

Platinum(1+), (2,9-dimethyl-1,10-phenanthroline- N1,N10)(η2-ethene)methyl[1,3-dihydro-1,3-dimethyl-4-[1-[2,3,4,6-tetrakis-O-(acetyl)-β-D-glucopyranosyl]-1H-1,2,3-triazol-4-yl]-2H-imidazol-2-ylidene], 1,1,1-trifluoromethanesulfonate [1-Me,Me]
Log Po/w [1]: 0.42 | IC50 [2]: 8.4 ± 1.7 µM | IC50 [3]: 26 ± 1 µM | IC50 ([4]; 48 h incubation, MTT): 9.8 ± 0.3 µM | SI (selectivity index) ([4]; ratio IC50 BALB-c/3T3 / IC50 SVT2): 2.65 | Pt uptake (SVT2 cells): 0.772 ± 0.010 Pt ng/10^6 cells
